Patent US10633389B2, “CARM1 inhibitors and uses thereof” (Epizyme, Inc., priority 2013, dated 2020)

Test system: asymmetric di-methyl PABP1 in RKO cells
Assay: RKO methylation assay, In Cell Western (ICW) for asymmetric di-methyl PABP1
Type: cell-based
Conditions: Homo sapiens, RKO, Cellular potencies, ICW PABP1me2a
Summary of the method: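 In-cell Western on fixed RKO cells after 48 h compound exposure: anti-asymmetric di-methyl PABP1 signal at 800 nm over DRAQ5 DNA signal at 700 nm. Percent inhibition set between DMSO wells and wells with 20 μM reference compound; IC50 curves fitted in triplicate.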

| IC50 | SMILES |
| --- | --- |
| < 5 µM | CNC[C@@H](O)COc1ccc(F)c(-c2nc(-c3c(C)noc3C)c(C)c(N3Cc4cc(OC)cnc4C3)n2)c1 [Example 244-3] |
| < 5 µM | CNC[C@H](O)COc1ccc(Cl)c(-c2nc(NCCC(C)(C)OC)c(C)c(-c3c(C)noc3C)n2)c1 [Example 82-3] |
| 10 to 20 µM | CNCC(O)COc1cccc(-c2nc(N3CCC4(CCO4)CC3)cc(N(C)C3CCOCC3)n2)c1 (centres unmarked) [Example 579-1a] |
| < 5 µM | CNC[C@@H](O)COc1ccc(Cl)c(-c2nc(-c3c(C)noc3C)c(C)c(N3Cc4cnn(CC(F)(F)F)c4C3)n2)c1 [Example 265-3] |
| 5 to 10 µM | CNCC(O)COc1cccc(-c2nc(-c3nc(C)c[nH]3)cc(N(C)C3CCOCC3)n2)c1 (centres unmarked) [Example 521-1a] |
| < 5 µM | CNC[C@@H](O)COc1ccc(C(F)(F)F)c(-c2nc(-c3c(C)noc3C)c(C)c(N3Cc4cncnc4C3)n2)c1 [Example 247-3] |
| < 5 µM | CNCC(O)COc1ccc(Cl)c(-c2nc(NC3CCN(C(=O)OC)CC3)c(C)c(-c3c(C)noc3C)n2)c1 (centres unmarked) [Example 270-1a] |
| ≥ 20 µM | CNCC(O)COc1cc(Cl)cc(-c2nc(-c3ccncc3)cc(N3CCOCC3)n2)c1 (centres unmarked) [Example 632-1a] |
| < 5 µM | CNCC(O)COc1cccc(-c2nc(N[C@@H]3CCOC3)c(C)c(N3CC[C@@H](c4cccnc4)C3)n2)c1 (some centres unmarked) [Example 467-1a] |
| 5 to 10 µM | CCS(=O)(=O)N1CC2(CCCN(c3nc(-c4cccc(OCC(O)CNC)c4)nc(-c4c(C)noc4C)c3C)C2)C1 (centres unmarked) [Example 296-1a] |
| 10 to 20 µM | CNCC(O)COc1cccc(-c2nc(SC)cc(N(C)C3CCOCC3)n2)c1 (centres unmarked) [Example 573-1a] |
| < 5 µM | CNC[C@H](O)COc1ccc(Cl)c(-c2nc(N[C@H]3CCN(C4CC4)C[C@H]3F)c(C)c(-c3c(C)noc3C)n2)c1 [Example 43-3] |
| < 5 µM | CCOC(=O)N1CCCCC1CNc1nc(-c2cc(OC[C@H](O)CNC)ccc2Cl)nc(-c2c(C)noc2C)c1C (some centres unmarked) [Example 28-3] |
| 10 to 20 µM | CNCC(O)COc1cccc(-c2nc(N3CCN(CCF)[C@@H](C)C3)cc(N(C)C3CCOCC3)n2)c1 (some centres unmarked) [Example 578-1a] |
| 10 to 20 µM | CNCC(O)COc1cc(Cl)cc(-c2nc(-c3ccncc3)c(Br)c(N(C)C3CCOCC3)n2)c1 (centres unmarked) [Example 611-1a] |
| < 5 µM | CNC[C@@H](O)COc1ccc(Cl)c(-c2nc(N[C@@H]3C[C@@H](C)O[C@@H](C)C3)c(Cl)c(-c3c(C)noc3C)n2)c1 [Example 183-3] |
| < 5 µM | CNCC(O)COc1cccc(-c2nc(N[C@@H]3CCOC3)c(C)c(N3Cc4ccncc4C3)n2)c1 (some centres unmarked) [Example 427-1a] |
| < 5 µM | CNC[C@@H](O)COc1ccc(Cl)c(-c2nc(N[C@H]3CCN(C(=O)OC)[C@@H](C)C3)c(C)c(-c3c(C)noc3C)n2)c1 [Example 169-3] |
| < 5 µM | CNC[C@@H](O)COc1ccc(Cl)c(-c2nc(N[C@@H]3CCN(C4CC4)[C@H](C)C3)c(C)c(-c3c(C)noc3C)n2)c1 [Example 139-3] |
| < 5 µM | CNCC(O)COc1cccc(-c2nc(N[C@@H]3CCOC3)c(C)c(N3CCN(C)[C@H](C)C3)n2)c1 (some centres unmarked) [Example 463-1a] |
| < 5 µM | CNC[C@@H](O)COc1cccc(-c2nc(NC3CCN(C(=O)OC)CC3)c(C)c(-c3c(C)noc3C)n2)c1 [Example 170-1a] |
| < 5 µM | CCOC(=O)N1CCC[C@H]1CCOc1nc(-c2cc(OC[C@H](O)CNC)ccc2Cl)nc(-c2c(C)noc2C)c1C [Example 221-3] |
| < 5 µM | CNC[C@@H](O)COc1ccc(F)c(-c2nc(-c3c(C)noc3C)c(Cl)c(N3CC4(CCOCC4)C3)n2)c1 [Example 294-3] |
| < 5 µM | CNC[C@@H](O)COc1ccc(F)c(-c2nc(N[C@H]3CCN(C4CC4)C[C@H]3F)c(C)c(-c3c(C)noc3C)n2)c1 [Example 98-3] |
| < 5 µM | CCO[C@H]1CCC[C@@H]1Nc1nc(-c2cc(OC[C@H](O)CNC)ccc2Cl)nc(-c2c(C)noc2C)c1C [Example 222-3] |
| < 5 µM | CNCC(O)COc1cccc(-c2nc(NCC3CCN(C(=O)OC)CC3)c(C)c(-c3c(C)noc3C)n2)c1 (centres unmarked) [Example 184-1a] |
